# Patent publication US7244738B2, “Arylamine-substituted quinazolinone compounds useful as alpha 1A/B adrenergic receptor antagonists” (Roche Palo Alto LLC, priority 2003, dated 2007)
row,Compound,melting point [°C]
1,"COc1cc2[nH]c(N(C)Cc3cccc(C4=NCCO4)c3)nc(=O)c2c(OC)c1OC [Example 11, 2-{[3-(4,5-Dihydro-oxazol-2-yl)-benzyl]-methyl-amino}-5,6,7-trimethoxy-1H-quinazolin-4-one]",202.3 to 203.4
2,"COc1cc2[nH]c(N(C)Cc3ccc(N4CCCC4=O)cc3)nc(=O)c2c(OC)c1OC [Example 12, 5,6,7-Trimethoxy-2-{methyl-[4-(2-oxo-pyrrolidin-1-yl)-benzyl]-amino}-1H-quinazolin-4-one]",195.9 to 197.4
3,"C=CCN1Cc2ccc(CN(C)c3nc(=O)c4c(OC)c(OC)c(OC)cc4[nH]3)cc2C1 [Example 13, 2-[(2-Allyl-2,3-dihydro-1H-isoindol-5-ylmethyl)-methyl-amino]-5,6,7-trimethoxy-1H-quinazolin-4-one]",133.7 to 136.6
4,"COc1cc2[nH]c(N(C)Cc3ccc(OCC(O)CO)cc3)nc(=O)c2c(C)c1OC (stereo not shown) [Example 14, 2-{[4-(2,3-Dihydroxy-propoxy)-benzyl]-methyl-amino}-6,7-dimethoxy-5-methyl-1H-quinazolin-4-one]",199.7 to 201.9
5,"COc1ccc(CN(C)c2nc(=O)c3c(C)c(OC)c(OC)cc3[nH]2)cc1OCCN(C)CCO [Example 16, 2-[(3-{2-[(2-Hydroxy-ethyl)-methyl-amino]-ethoxy}-4-methoxy-benzyl)-methyl-amino]-6,7-dimethoxy-5-methyl-1H-quinazolin-4-one]",144.8 to 146.2
6,"COc1cc2[nH]c(N(C)Cc3cccc(CN(C)S(C)(=O)=O)c3)nc(=O)c2c(C)c1OC [Example 17, N-(3-{[(6,7-Dimethoxy-5-methyl-4-oxo-1,4-dihydro-quinazolin-2-yl)-methyl-amino]-methyl}-benzyl)-N-methyl-methanesulfonamide]",223.9 to 225.9
7,"COCCN1Cc2ccc(CN(C)c3nc(=O)c4c(OC)c(OC)c(OC)cc4[nH]3)cc2C1 [Example 18, 5,6,7-Trimethoxxy-2-{[2-(2-methoxy-ethyl)-2,3-dihydro-1H-isoindol-5-ylmethyl]-methyl-amino}-1H-quinazolin-4-one]",133.3 to 136.6
8,"COCCN1Cc2ccc(CN(C)c3nc(=O)c4c(C)c(OC)c(OC)cc4[nH]3)cc2C1 [Example 19, 6,7-Dimethoxy-2-{[2-(2-methoxy-ethyl)-2,3-dihydro-1H-isoindol-5-ylmethyl]-methyl-amino}-5-methyl-1H-quinazolin-4-one]",173.3 to 177.9
9,"COc1cc2[nH]c(N(C)Cc3cccc(N4CCC(OC)C4=O)c3)nc(=O)c2c(OC)c1OC (stereo not shown) [Example 20, 5,6,7-Trimethoxy-2-{[3-(3-methoxy-2-oxo-prrolidin-1-yl)-benzyl]-methyl-amino}-1H-quinazolin-4-one]",90.2 to 94.7
10,"COc1cc2[nH]c(N(C)Cc3ccc(CN(C)S(C)(=O)=O)cc3)nc(=O)c2c(OC)c1OC [Example 21, N-Methyl-N-(4-{[methyl-(5,6,7-trimethoxy-4-oxo-1,4-dihydro-quinazolin-2-yl)-amino]-methyl}-benzyl)-methanesulfonamide]",148.8 to 151
11,"CNCCc1ccc(CN(C)c2nc(=O)c3c(C)c(OC)c(OC)cc3[nH]2)cc1 [Example 23, 6,7-Dimethoxy-5-methyl-2-{methyl-[4-(2-methylamino-ethyl)-benzyl]-amino}-1H-quinazolin-4-onbe]",154.6 to 159
12,"COc1cc2[nH]c(N(C)Cc3cccc(N4C[C@@H](O)CC4=O)c3)nc(=O)c2c(OC)c1OC [Example 24, 2-{[3-((S)-4-Hydroxy-2-oxo-pyrrolidin-1-yl)-benzyl]-methyl-amino}-5,6,7-trimethoxy-1H-quinazolin-4-one]",207.5 to 209.9
13,"CCN(C)CCOc1ccc(CN(C)c2nc(=O)c3c(C)c(OC)c(OC)cc3[nH]2)cc1OC [Example 25, 2-({4-[2-(Ethyl-methyl-amino)-ethoxy]-3-methoxy-benzyl}-methyl-amino)-6,7-dimethoxy-5-methyl-1H-quinazolin-4-one]",158.1 to 159.2
